Toxic doses and inconclusive results are not listed.
Tested on: P388 leukemia ip, CD2F1 mice, survival T/C
Test: NCI In Vivo Anticancer Drug Screen. Data for tumor model P388 Leukemia (intraperitoneal) in CD2F1 (CDF1) mice
Settings: endpoint: median survival time, higher = longer survival
Summary of the method: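 Mice carrying the transplanted tumor received test compound or vehicle. Survival was recorded in each group, and the value is the treated-group measurement divided by that of the vehicle-treated control group.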

[1] = dose: 60.0 mg/kg/injection, schedule: Q01DX005 (ip), vehicle: saline with Tween-80
[2] = dose: 120.0 mg/kg/injection, schedule: Q01DX005 (ip), vehicle: saline with Tween-80

CC(=O)N1c2ccccc2C23CCN(C)CC4C(C)OCC(C4CC2=O)C13 (configuration not stated)
T/C (dose: 2.0 mg/kg/injection, schedule: Q01DX009 (ip), vehicle: Klucel (hydroxypropylcellulose) (HPC)): 100 % of control
T/C (dose: 4.0 mg/kg/injection, schedule: Q01DX009 (ip), vehicle: Klucel (hydroxypropylcellulose) (HPC)): 95 % of control
T/C (dose: 8.0 mg/kg/injection, schedule: Q01DX009 (ip), vehicle: Klucel (hydroxypropylcellulose) (HPC)): 98 % of control
T/C (dose: 16.0 mg/kg/injection, schedule: Q01DX009 (ip), vehicle: Klucel (hydroxypropylcellulose) (HPC)): 100 % of control
T/C (dose: 32.0 mg/kg/injection, schedule: Q01DX009 (ip), vehicle: Klucel (hydroxypropylcellulose) (HPC)): 100 % of control

CC1CN(S(=O)(=O)c2cc(Cl)c(Oc3ccc([N+](=O)[O-])cc3Cl)c(Cl)c2)CC(C)O1 (configuration not stated)
T/C (dose: 60.0 mg/kg/injection, schedule: Q01DX005 (ip), vehicle: Klucel (hydroxypropylcellulose) (HPC)): 106 % of control
T/C (dose: 120.0 mg/kg/injection, schedule: Q01DX005 (ip), vehicle: Klucel (hydroxypropylcellulose) (HPC)): 101 % of control
T/C (dose: 240.0 mg/kg/injection, schedule: Q01DX005 (ip), vehicle: Klucel (hydroxypropylcellulose) (HPC)): 97 % of control

Fc1ccc(N2C(c3ccccc3)=N[C@@H](N3CCCCC3)[C@@H]2N2CCCCC2)cc1
T/C (dose: 50.0 mg/kg/injection, schedule: Q01DX005 (ip), vehicle: Klucel (hydroxypropylcellulose) (HPC)): 102 % of control
T/C (dose: 100.0 mg/kg/injection, schedule: Q01DX005 (ip), vehicle: Klucel (hydroxypropylcellulose) (HPC)): 99 % of control
T/C (dose: 200.0 mg/kg/injection, schedule: Q01DX005 (ip), vehicle: Klucel (hydroxypropylcellulose) (HPC)): 100 % of control

CN(C)C(=S)/N=C1\SCS(=O)(=O)N1C
T/C (dose: 25.0 mg/kg/injection, schedule: Q01DX009 (ip), vehicle: saline with Tween-80): 91 % of control
T/C (dose: 50.0 mg/kg/injection, schedule: Q01DX009 (ip), vehicle: saline with Tween-80): 110 % of control
T/C (dose: 100.0 mg/kg/injection, schedule: Q01DX009 (ip), vehicle: saline with Tween-80): 100 % of control

COC(=O)c1c(O)c(OC)c(-c2ccccc2)[nH]c1=O
T/C [1]: 89 % of control
T/C [2]: 89 % of control

Cc1cc(N2CCOCC2)n2c(nc3ccccc32)c1C#N
T/C [1]: 96 % of control
T/C [2]: 100 % of control

CCCCCCCCCCN(CCCCCCCCCC)C1CC(OC2CC(O)(C(C)=O)Cc3c(O)c4c(c(O)c32)C(=O)c2c(OC)cccc2C4=O)OC(C)C1O (configuration not stated)
T/C (dose: 3.13 mg/kg/injection, schedule: Q01DX009 (ip), vehicle: distilled water + Tween-80): 113 % of control
T/C (dose: 4.7 mg/kg/injection, schedule: Q04DX003 (ip), vehicle: other): 104 % of control
T/C (dose: 6.25 mg/kg/injection, schedule: Q01DX009 (ip), vehicle: distilled water + Tween-80): 96 % of control
T/C (dose: 9.4 mg/kg/injection, schedule: Q04DX003 (ip), vehicle: other): 104 % of control
T/C (dose: 12.5 mg/kg/injection, schedule: Q01DX009 (ip), vehicle: distilled water + Tween-80): 102 % of control
T/C (dose: 18.8 mg/kg/injection, schedule: Q04DX003 (ip), vehicle: other): 112 % of control
T/C (dose: 37.5 mg/kg/injection, schedule: Q04DX003 (ip), vehicle: other): 105 % of control
T/C (dose: 75.0 mg/kg/injection, schedule: Q04DX003 (ip), vehicle: other): 103 % of control

O=[N+]([O-])c1cnccc1-n1nnc2ccccc21
T/C [1]: 96 % of control
T/C [2]: 96 % of control
T/C (dose: 240.0 mg/kg/injection, schedule: Q01DX005 (ip), vehicle: saline with Tween-80): 104 % of control

Cc1cc(-c2ccc(N3C(=O)CC4(CCCC4)C3=O)c(C)c2)ccc1N1C(=O)CC2(CCCC2)C1=O
T/C (dose: 50.0 mg/kg/injection, schedule: Q01DX009 (ip), vehicle: Klucel (hydroxypropylcellulose) (HPC)): 97 % of control
T/C (dose: 100.0 mg/kg/injection, schedule: Q01DX009 (ip), vehicle: Klucel (hydroxypropylcellulose) (HPC)): 96 % of control
T/C (dose: 200.0 mg/kg/injection, schedule: Q01DX009 (ip), vehicle: Klucel (hydroxypropylcellulose) (HPC)): 96 % of control

CC(C)(C)OC(=O)N[C@@H](CNOCc1ccccc1)C(N)=O
T/C (dose: 50.0 mg/kg/injection, schedule: Q01DX005 (ip), vehicle: saline with Tween-80): 92 % of control
T/C (dose: 100.0 mg/kg/injection, schedule: Q01DX005 (ip), vehicle: saline with Tween-80): 92 % of control
T/C (dose: 200.0 mg/kg/injection, schedule: Q01DX005 (ip), vehicle: saline with Tween-80): 86 % of control

Cc1cc(N(CCCl)CCCl)ccc1C=Nc1ccccc1-c1ccccc1
T/C (dose: 400.0 mg/kg/injection, schedule: Q01DX009 (ip), vehicle: Klucel (hydroxypropylcellulose) (HPC)): 155 % of control
T/C (dose: 600.0 mg/kg/injection, schedule: Q01DX009 (ip), vehicle: Klucel (hydroxypropylcellulose) (HPC)): 170 % of control

From PubChem BioAssay AID330 (DTP/NCI, 2004)
